# Experimental data reported in article PMC10901950, “Neuroprotective and Anti-inflammatory Effects of Rubiscolin-6 Analogs with Proline Surrogates in Position 2” (Neurochemical Research, 2023).
# Ends that are not written are not given here.
# What was measured:
# RAW 264.7 cells = test: Intracellular ROS generation in RAW 264.7 cells (not stimulated); type: cell-based, mouse; conditions: 0.1-10 µM, 24 h, DCFH-DA, unstimulated cells
# Description: The detection of ROS generated in injured cells was evaluated using the 5(6)-carboxy-2ʹ,7ʹ-dichlorofluorescein diacetate (carboxy-H2DCFDA) reagent (Invitrogen, Bleiswijk, Netherlands). After incubation, cells were washed with ice-cold Phosphate-Buffer Saline (PBS). Then, the carboxyl-H2DCFDA (100 µL, 20 µM) reagent was added and incubated for 1 h at 37 °C. Finally, the fluorescence intensity was measured at wavelengths of […], and ROS levels were presented in percentage of control (non-treated cells).
# SH-SY5Y cells = test: Cytotoxicity on SH-SY5Y cells (MTT); type: cell-based, human; conditions: 10 µM, 24 h
# Description: The neuroprotective experiments were performed in an in vitro model of a human neuroblastoma cell line (SH-SY5Y) obtained from the German Collection of Microorganisms and Cell Cultures GmbH (DSMZ) Bank (ACC 209). Cells were cultured in Dulbecco’s Modified Eagle’s Medium: Nutrient Mixture F12 (DMEM:F12) supplemented with 1% antibiotic/antimycotic (Amphotericin B, Penicillin and Streptomycin) (Biowest, Nuaillé, France) and 10% (v/v) Fetal Bovine Serum (FBS) (Biowest, Riverside, MO, USA). The anti-inflammatory experiments were performed in an in vitro model of mouse macrophage-like RAW 264.7 cells, purchased from American Type Culture Collection (ATCC, Manassas, VA, USA). Cells were maintained in DMEM medium (Gibco™, Grand Island, NY) and supplemented with 10% bovine calf serum (BCS) (Gibco™, Grand Island, NY) and 1% penicillin–streptomycin (Sigma-Aldrich, St. Louis, MO, USA). Cell cultures were kept at 37 °C in 5% CO2/humidified air.
# Cells were incubated with peptides (0.1–10 µM) for 24 h to assess their cytotoxic activity. […] The resulting absorbance was read in a microplate reader (Biotek, Epoch/2 microplate reader, Winooski, VT, USA) at 570 nm.
# Cell metabolic activity (cytotoxicity) was calculated as the percentage of the value obtained for cells incubated with compounds compared to control cells treated with the medium.
Substance,effect on intracellular ROS levels (RAW 264.7 cells),SH-SY5Y cell viability (cytotoxicity) (SH-SY5Y cells)
"YPLDLF [R-6, rubiscolin-6]",did not affect,
"YPLDLF-NH2 [analog 6, Tyr-Pro-Leu-Asp-Leu-Phe-NH2]",,significantly decreased
